We go through two compounds from paper PMC7948977 (The Journal of Biological Chemistry, 2020).

One assay concerns swine dUTPase. Type of assay: biochemical.
Assay [1] deals with T1, ASFV dUTPase (African swine fever virus, UniProt Q65199). Type of assay: biochemical.
The target in assay [2] is T1, ASFV dUTPase. The assay is described as follows: biochemical. Type of assay: binding.

T1 sequence (Q65199 whole entry, looked up): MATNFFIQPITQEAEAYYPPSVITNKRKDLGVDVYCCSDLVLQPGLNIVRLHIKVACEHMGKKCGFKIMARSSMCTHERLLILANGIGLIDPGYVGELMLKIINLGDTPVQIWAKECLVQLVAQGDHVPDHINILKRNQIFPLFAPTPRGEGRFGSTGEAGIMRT

With `O=c1ccn(CCCCNC(c2ccccc2)(c2ccccc2)c2ccccc2)c(=O)[nH]1` [compound 1], the “selectivity of inhibitory activity for ASFV dUTPase over swine dUTPase” value in the assay with swine dUTPase is given as “selective for ASFV dUTPase over swine dUTPase”. On ASFV dUTPase [1], the “inhibition of enzyme activity of ASFV dUTPase” value is reported as “dose-dependent manner”. On ASFV dUTPase [2], binding was characterised by a dissociation constant (Kd) of 15.6 µM and the mode of inhibition result is “competitive inhibitor”.
For `O=c1ccn(CCCCOC(c2ccccc2)(c2ccccc2)c2ccccc2)c(=O)[nH]1` [compound 2], the “inhibition of enzyme activity of ASFV dUTPase” value against ASFV dUTPase [1] is reported as “dose-dependent manner”. For the same compound, the Kd entry at ASFV dUTPase [2] is “cannot be calculated”.

For orientation: Kd means the free concentration of one partner at which half of the binding sites on the other are occupied at equilibrium, for simple one-to-one binding.
